The term EC50 denotes the concentration that produces a half-maximal response. For orientation: half-life means how long it takes for the measured level to halve.

The source of these data is paper PMC7915682, “Pursuing Orally Bioavailable Hepcidin Analogues via Cyclic N-Methylated Mini-Hepcidins” (Biomedicines, 2021).

The target of data set [1] is T1, GFP-tagged ferroportin (FPN) (Homo sapiens, UniProt Q9NP59).
T1 construct: expressed in transfected cells
T1 sequence (Q9NP59 1-571): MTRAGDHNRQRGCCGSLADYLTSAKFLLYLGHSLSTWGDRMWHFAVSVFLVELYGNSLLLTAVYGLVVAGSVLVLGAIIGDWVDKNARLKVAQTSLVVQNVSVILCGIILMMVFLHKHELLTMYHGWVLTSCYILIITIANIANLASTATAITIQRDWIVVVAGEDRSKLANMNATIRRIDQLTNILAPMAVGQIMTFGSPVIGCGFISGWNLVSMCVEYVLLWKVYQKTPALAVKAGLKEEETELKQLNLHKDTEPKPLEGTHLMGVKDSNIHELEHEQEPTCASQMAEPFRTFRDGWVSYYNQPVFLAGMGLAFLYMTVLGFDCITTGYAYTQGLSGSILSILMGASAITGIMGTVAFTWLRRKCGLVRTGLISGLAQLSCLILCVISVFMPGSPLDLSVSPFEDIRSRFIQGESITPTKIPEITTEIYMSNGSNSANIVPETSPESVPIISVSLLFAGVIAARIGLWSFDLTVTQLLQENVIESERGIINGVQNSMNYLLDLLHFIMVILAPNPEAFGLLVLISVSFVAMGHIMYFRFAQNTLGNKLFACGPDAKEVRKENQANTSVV
Put plainly: FPN-GFP degradation (internalisation) assay by flow cytometry in HEK293:T-REx-FPN-GFP cells. It counts as cell-based. The settings on record: 24 h treatment; for EC50: FPN degradation dose-response, HEK293:T-REx-FPN-GFP cells; for FPN Degradation % ± SEM: peptide 10 μM, normalised with respect to hepcidin (1 μM), n = 3. The procedure:
HEK293:T-REx^TM-FPN-GFP cells, described previously, were cultured in T75 flasks containing FPN-GFP media (Dulbecco’s Modified Eagle’s Medium (DMEM) containing high glucose, GlutaMAX^TM supplement, hydroxyethyl piperazineethanesulfonic acid (HEPES), 10% tetracycline screened foetal bovine serum (FBS), 1% penicillin/streptomycin, and 100 μg/mL of hygromycin) and maintained at 37 °C in a humidified atmosphere of 5% CO2.
HEK293:T-REx^TM-FPN-GFP cells were plated in FPN-GFP media in the presence of 20 µM FAC (ferric ammonium citrate = ammonium iron (III) citrate) and induced on the following day with 50 ng/mL of doxycycline hydrochloride. After 24 h, doxycycline hydrochloride was washed off with PBS (phosphate buffered saline) and the cells were treated with peptides for another 24 h. Cells were then trypsinised, centrifuged (5 min at 1000 rpm), and resuspended in PBS at approximately 1 × 10^4 cell/µL. The intensity of green fluorescence was measured by flow cytometry performed on a Becton Dickinson LSR Fortessa-X-20. Cells not induced with doxycycline hydrochloride were used to establish a gate to exclude background fluorescence, and cells induced to express FPN-GFP but not treated with any peptides were used as the positive control. Each peptide treatment was repeated independently at least three times except for the initial screening of the mono N-methylated analogues (Figure 2), which was only performed once. The results were expressed as the % of the reduction in fluorescence with respect to hepcidin-treated cells according to the following formula: % FPN Degradation = (1 − (average FHepc − Fχ)/(average FHepc − average Funtreated)) × 100, where F corresponds to the GFP gate median, and χ to the peptide analysed.
Peptide bioactivity was measured using HEK293:T-REx^TM-FPN-GFP cells stably expressing a GFP-tagged ferroportin (FPN) construct that was treated overnight with different concentrations of hepcidin or analogues. FPN-GFP expression and FPN-GFP internalisation and degradation in response to hepcidin treatment were confirmed by confocal microscopy, and the % of GFP fluorescence was then analysed by flow cytometry and expressed as a % FPN degradation. […] This promising result led us to design a second series of analogues that included multiple N-methylated residues with and without backbone cyclisation.

Data set [2] in a line: Serum stability assay (25% human male serum, 37 °C, LC-MS). It counts as in vitro ADME. The procedure: Human male serum was centrifuged at 20,000 g for 10 min and the clear part of the supernatant was then diluted to 25% (v/v) with Milli-Q® water and incubated at 37 °C for 15 min. Each peptide sample was dissolved in triplicate at a final concentration of 20 μM in pre-incubated 25% serum, or Milli-Q® water as a control. […] Supernatant was then removed and transferred into vials for liquid chromatography mass spectrometry (LC-MS) analysis (50 μL injection and multiple reaction monitoring (MRM) protocol, Table S2). The effect of these strategies on the stability of mini-hepcidin analogues was investigated by incubating selected derivatives in human male serum at 37 °C and collecting samples at various time points. The results were then quantitated by liquid chromatography-mass spectrometry (LC-MS). We were unable to determine the serum stability of all analogues as the recovery from serum and detection of the peptides was very low. Modification of sample preparation protocols, optimisation of LC/MS conditions, and reducing serum concentration to 25% were unable to improve yield/detection. We would predict that this poor recovery is due to high binding of peptides to serum proteins, which is consistent with native hepcidin, which binds to α-2-macroglobulin [35, 36]. […] Effect of macrocyclisation and N-methylation on the stability of selected mini- hepcidin derivatives. A) Illustration of sites most susceptible to enzymatic attack in mini- hepcidin derivatives. B) Serum stability analysis of selected […]. Human male serum was centrifuged at 20,000 g for 10 minutes and the clear part of the supernatant was then diluted to 25% (v/v) with Milli-Q® water and incubated at 37 °C for 15 minutes. Each peptide sample was dissolved in triplicate at a final concentration of 20 μM in pre-incubated 25% serum, or Milli-Q® water as a control. Aliquots of 100 μL were removed at different time points and quenched with 100 μL of 15% trichloroacetic acid (TCA), followed by […] Supernatant was then removed and transferred into vials for liquid chromatography mass spectrometry (LC- MS) analysis (50 μL injection and multiple reaction monitoring (MRM) protocol). Error bars […] Comparison between Hep9, 2, […]9, 9. (also on this page, place not known: […] Hep9 2 […]] 7 Proteolytic attack Reduced proteolytic attack Blocked proteolytic attack 0 50 100 150 200 0 50 100 Time /min % Peptide Remaining 2 9 A B 7) (1 picture or pasted object on this page, not shown here)

The next data set relates to Caco-2. The experiment in a line: Caco-2 in vitro model (preliminary). It is filed as in vitro ADME. Conditions: preliminary results, data not shown. An excerpt:
It has been proposed that by enhancing the lipophilicity of peptides, the intestinal permeability could be improved by facilitating transcellular absorption (passive diffusion). Thus, our rationale was to improve the permeability of Hep9 2, by increasing its lipophilicity via both cyclisation and multiple N-methylations. […] Cyclisation and N-methylation appear to facilitate the crossing of the artificial lipid membrane for cHep9[Ser^1, MeThr^2, MeIle^8] 13, but this enhancement was not statistically significant relative to atenolol, a marker for poor transcellular permeability, or Hep9 2, (Figure 5). […] Preliminary results from a Caco-2 in vitro model were consistent with the PAMPA data (data not shown).

Read-outs that look alike come from different tables or passages of the source. Where a SMILES comes first, the peptide text is derived from it. Where no end group is shown, it is not given here.

In data set [1], `CC[C@H](C)[C@H](NC(=O)[C@H](CS)NC(=O)[C@@H](NC(=O)[C@@H]1CCCN1C(=O)[C@H](Cc1ccccc1)NC(=O)[C@H](Cc1c[nH]cn1)NC(=O)[C@@H](NC(=O)[C@@H](N)CC(=O)O)[C@@H](C)O)[C@@H](C)CC)C(=O)N[C@@H](Cc1ccccc1)C(=O)O` [Peptide 2, reference compound] had an EC50 of 2110 nM. For the same compound, in data set [2] (male, human, serum), the half-life at 20 μM was ~3 min.

For the compound `CC[C@H](C)[C@H](NC(=O)[C@H](CS)NC(=O)[C@H]([C@@H](C)CC)N(C)C(=O)[C@@H]1CCCN1C(=O)[C@H](Cc1ccccc1)NC(=O)[C@H](Cc1c[nH]cn1)NC(=O)[C@H]([C@@H](C)O)N(C)C(=O)[C@@H](N)CO)C(=O)N[C@@H](Cc1ccccc1)C(=O)O` [Peptide 5, S[N-Me T]HFP[N-Me I]CIF] (HELM PEPTIDE1{S.[meT].H.F.P.[meI].C.I.F}$$$$V2.0; N-terminus assumed), in data set [1], it took 40700 nM to reach a half-maximal effect (EC50). Take STHFPICIF-OH [Peptide 3]: in data set [1], the response was half-maximal at 326 nM (EC50). `CC[C@H](C)[C@@H]1NC(=O)[C@H](CS)NC(=O)[C@H]([C@@H](C)CC)NC(=O)[C@@H]2CCCN2C(=O)[C@H](Cc2ccccc2)NC(=O)[C@H](Cc2c[nH]cn2)NC(=O)[C@H]([C@@H](C)O)NC(=O)[C@H](CO)NC(=O)[C@H](Cc2ccccc2)NC1=O` [Peptide 9] (HELM PEPTIDE1{C.I.F.S.T.H.F.P.I}$PEPTIDE1,PEPTIDE1,1:R1-9:R2$$$V2.0): the half-maximal effective concentration (EC50) in data set [1] is 266 nM. Same read-out and setting: under `CC[C@H](C)[C@H]1C(=O)N[C@@H](Cc2ccccc2)C(=O)N[C@@H](CC(=O)O)C(=O)N[C@@H]([C@@H](C)O)C(=O)N[C@@H](Cc2c[nH]cn2)C(=O)N[C@@H](Cc2ccccc2)C(=O)N2CCC[C@H]2C(=O)N(C)[C@@H]([C@@H](C)CC)C(=O)N[C@@H](CS)C(=O)N1C` [Peptide 12, c(DTHFP[N-Me I]C[N-Me I]F)] stands 2900 nM; under `CC[C@H](C)[C@@H](C(=O)N[C@@H](Cc1ccccc1)C(=O)O)N(C)C(=O)[C@H](CS)NC(=O)[C@H]([C@@H](C)CC)N(C)C(=O)[C@@H]1CCCN1C(=O)[C@H](Cc1ccccc1)NC(=O)[C@H](Cc1c[nH]cn1)NC(=O)[C@H]([C@@H](C)O)N(C)C(=O)[C@@H](N)CO` [Peptide 7, S[N-Me T]HFP[N-Me I]C[N-Me I]F] (HELM PEPTIDE1{S.[meT].H.F.P.[meI].C.[meI].F}$$$$V2.0; N-terminus assumed), 1890 nM. In the case of `CC[C@H](C)[C@@H]1NC(=O)[C@@H](NC(=O)[C@@H](NC(=O)[C@@H]2CCCN2C(=O)[C@H](Cc2ccccc2)NC(=O)[C@H](Cc2c[nH]cn2)NC(=O)[C@@H](NC(=O)[C@@H](N)CC(=O)O)[C@@H](C)O)[C@@H](C)CC)CSSC[C@@H](C(=O)N[C@@H](CCCCN)C(=O)N[C@H](C(=O)O)[C@@H](C)O)NC(=O)[C@@H]2CSSC[C@@H]3NC(=O)[C@@H]4CSSC[C@H](NC(=O)[C@H](Cc5ccccc5)NC1=O)C(=O)N[C@@H](CSSC[C@H](NC(=O)[C@H](CCCCN)NC(=O)[C@H](CO)NC(=O)[C@H](CCCNC(=N)N)NC(=O)[C@H](Cc1c[nH]cn1)NC3=O)C(=O)NCC(=O)N[C@@H](CCSC)C(=O)N2)C(=O)NCC(=O)N4` [Peptide 1, reference compound], in data set [1], a half-maximal response (EC50) required 9.38 nM and the “FPN Degradation % ± SEM” value is given as 100 ± 2.6%. In the case of `CC[C@H](C)[C@@H]1NC(=O)[C@@H]2CCCN2C(=O)[C@H](Cc2ccccc2)NC(=O)[C@H](Cc2c[nH]cn2)NC(=O)[C@H]([C@@H](C)O)N(C)C(=O)[C@H](CO)NC(=O)[C@H](Cc2ccccc2)NC(=O)[C@H]([C@@H](C)CC)N(C)C(=O)[C@H](CS)NC1=O` [Peptide 13, c(S[N-Me T]HFPIC[N-Me I]F)] (HELM PEPTIDE1{S.[meT].H.F.P.I.C.[meI].F}$PEPTIDE1,PEPTIDE1,1:R1-9:R2$$$V2.0), the “Caco-2 permeability” value with Caco-2 is listed as “paralleled these observations”. This compound also had an EC50 in data set [1] of 140 nM. DTHFP[N-Me I]C[N-Me I]F [Peptide 4]: in data set [1], the “FPN Degradation % ± SEM” value was “Not active”. On the same count and under the same terms, the same measure for c(DTH[N-Me F]PICI[N-Me F]) [Peptide 11]: 63 ± 1.6%.

As to `CC[C@H](C)[C@H](NC(=O)[C@@H]1CCCN1C(=O)[C@H](Cc1ccccc1)NC(=O)[C@H](Cc1c[nH]cn1)NC(=O)[C@H]([C@@H](C)O)N(C)C(=O)[C@@H](N)CO)C(=O)N[C@@H](CS)C(=O)N(C)[C@H](C(=O)N[C@@H](Cc1ccccc1)C(=O)O)[C@@H](C)CC` [Peptide 6, S[N-Me T]HFPIC[N-Me I]F] (HELM PEPTIDE1{S.[meT].H.F.P.I.C.[meI].F}$$$$V2.0; N-terminus assumed), it took 2170 nM to reach a half-maximal effect in data set [1] (EC50). Besides, in data set [2] (25% (v/v) human male serum, 20 μM peptide in 25% human male serum, 37 °C, read-out: peptide half-life in serum), the half-life at 20 μM was ~12 min. In addition, the “stability relative to Hep9” value in data set [2] (25% human male serum, 37 °C, ratio of half-lives) is “approximately four”.

Consider `CC[C@H](C)[C@@H]1NC(=O)[C@H](CS)NC(=O)[C@H]([C@@H](C)CC)NC(=O)[C@@H]2CCCN2C(=O)[C@H](Cc2ccccc2)NC(=O)[C@H](Cc2c[nH]cn2)NC(=O)[C@H]([C@@H](C)O)NC(=O)[C@H](CC(=O)O)NC(=O)CNC(=O)CNC(=O)CNC(=O)CNC(=O)[C@H](Cc2ccccc2)NC1=O` [Peptide 10] (HELM PEPTIDE1{C.I.F.G.G.G.G.D.T.H.F.P.I}$PEPTIDE1,PEPTIDE1,1:R1-13:R2$$$V2.0), for which the half-maximal effective concentration (EC50) in data set [1] was 158 nM. On to `CC[C@H](C)[C@@H]1NC(=O)[C@H](CS)NC(=O)[C@H]([C@@H](C)CC)NC(=O)[C@@H]2CCCN2C(=O)[C@H](Cc2ccccc2)NC(=O)[C@H](Cc2c[nH]cn2)NC(=O)[C@H]([C@@H](C)O)NC(=O)[C@H](CC(=O)O)NC(=O)[C@H](Cc2ccccc2)NC1=O` [Peptide 8], for which the half-life at 20 μM in data set [2] (serum (25% v/v), 20 μM peptide in 25% human male serum, 37 °C, read-out: peptide half-life in serum) was ~8 min.
